Laboratory results as given in the NIST ThermoML archive (doi:10.1016/j.jct.2008.09.002).
± gives the expanded uncertainty stated by the source.

Assays:
[1] = molar heat capacity at constant pressure; settings: 101.33 kPa, Liquid, Small sample (50 mg) DSC
[2] = 101.33 kPa, Liquid; for speed of sound: Anton-Paar DSA48 sound analyzer; for mass density: Vibrating tube method
[3] = excess molar enthalpy (molar enthalpy of mixing); xn = mol fraction of the nth substance listed; settings: 303.15 K, 101.3 kPa, Liquid, Calvet calorimetry

CCCCn1cc[n+](C)c1.COS(=O)(=O)[O-] [1-butyl-3-methylimidazolium methyl sulfate]
Settings	mass density, [2] [kg/m3]	molar heat capacity at constant pressure, [1] [J/K/mol]	speed of sound, [2] [m/s]
293.15 K	1210.7 ± 1.3	413.7 ± 6.4	1670.9 ± 2
298.15 K	1207.4 ± 1.3	416.2 ± 6.4	1658.4 ± 2
303.15 K	1204.1 ± 1.3	418.5 ± 6.5	1646 ± 2
308.15 K	1200.8 ± 1.3	420.9 ± 6.5	1633.5 ± 2
313.15 K	1197.5 ± 1.3	423.3 ± 6.6	1621.1 ± 2
318.15 K	1194.2 ± 1.3	425.6 ± 6.6	1608.6 ± 2

CCCCn1cc[n+](C)c1.F[B-](F)(F)F [1-butyl-3-methylimidazolium tetrafluoroborate]
Settings	mass density, [2] [kg/m3]	molar heat capacity at constant pressure, [1] [J/K/mol]	speed of sound, [2] [m/s]
293.15 K	1207.6 ± 1.3	359.8 ± 5.6	1594.9 ± 2
298.15 K	1204.1 ± 1.3	363.1 ± 5.6	1576.1 ± 2
303.15 K	1200.5 ± 1.3	366.1 ± 5.7	1555.5 ± 2
308.15 K	1197 ± 1.3	368.7 ± 5.7	1543.9 ± 2
313.15 K	1193.4 ± 1.3	371 ± 5.7	1532.5 ± 2
318.15 K	1189.9 ± 1.3	372.9 ± 5.8	1521.2 ± 2

CCCCn1cc[n+](C)c1.O=S(=O)([O-])C(F)(F)F [1-butyl-3-methylimidazolium trifluoromethanesulfonate]
Settings	mass density, [2] [kg/m3]	molar heat capacity at constant pressure, [1] [J/K/mol]	speed of sound, [2] [m/s]
293.15 K	1301.6 ± 1.5	421.6 ± 6.5	1403.4 ± 2
298.15 K	1297.6 ± 1.5	424.1 ± 6.6	1392.1 ± 2
303.15 K	1293.7 ± 1.5	426.7 ± 6.6	1380.9 ± 2
308.15 K	1289.7 ± 1.5	429.5 ± 6.7	1369.8 ± 2
313.15 K	1285.8 ± 1.5	432.4 ± 6.7	1358.8 ± 2
318.15 K	1281.9 ± 1.5	435.5 ± 6.7	1348.1 ± 2

CCCC[n+]1cccc(C)c1.F[B-](F)(F)F [1-butyl-3-methylpyridinium tetrafluoroborate]
[2]
Settings	speed of sound [m/s]
293.15 K	1599.8 ± 2
298.15 K	1587 ± 2
303.15 K	1574.8 ± 2
308.15 K	1562.6 ± 2
313.15 K	1550.7 ± 2
318.15 K	1538.9 ± 2

CCOS(=O)(=O)[O-].CCn1cc[n+](C)c1 [1-ethyl-3-methylimidazolium ethyl sulfate]
Settings	mass density, [2] [kg/m3]	molar heat capacity at constant pressure, [1] [J/K/mol]	speed of sound, [2] [m/s]
293.15 K	1240.6 ± 1.4	392.2 ± 6.1	1691.4 ± 2
298.15 K	1237.2 ± 1.4	394.4 ± 6.1	1679 ± 2
303.15 K	1233.8 ± 1.4	396.8 ± 6.1	1666.6 ± 2
308.15 K	1230.4 ± 1.3	399.3 ± 6.2	1654 ± 2
313.15 K	1227 ± 1.3	402 ± 6.2	1641.6 ± 2
318.15 K	1223.7 ± 1.3	404.9 ± 6.3	1629.2 ± 2

CCn1cc[n+](C)c1.O=S(=O)([O-])C(F)(F)F [1-ethyl-3-methylimidazolium trifluoromethanesulfonate]
Settings	mass density, [2] [kg/m3]	molar heat capacity at constant pressure, [1] [J/K/mol]	speed of sound, [2] [m/s]
293.15 K	1389.5 ± 1.7	361.1 ± 5.6	1447 ± 2
298.15 K	1385.3 ± 1.7	363.2 ± 5.6	1435.6 ± 2
303.15 K	1381.1 ± 1.7	365.3 ± 5.7	1424.3 ± 2
308.15 K	1376.9 ± 1.7	367.4 ± 5.7	1413.1 ± 2
313.15 K	1372.7 ± 1.7	369.6 ± 5.7	1402.1 ± 2
318.15 K	1368.6 ± 1.7	371.8 ± 5.8	1391.1 ± 2

CCCCCCn1cc[n+](C)c1.F[B-](F)(F)F [1-hexyl-3-methylimidazolium tetrafluoroborate]
Settings	mass density, [2] [kg/m3]	molar heat capacity at constant pressure, [1] [J/K/mol]	speed of sound, [2] [m/s]
293.15 K	1148.8 ± 1.2	425.1 ± 6.6	1532.7 ± 2
298.15 K	1145.3 ± 1.1	427.8 ± 6.6	1519.5 ± 2
303.15 K	1141.8 ± 1.1	430.4 ± 6.7	1506.9 ± 2
308.15 K	1138.4 ± 1.1	433 ± 6.7	1494.5 ± 2
313.15 K	1135 ± 1.1	435.5 ± 6.7	1482.3 ± 2
318.15 K	1131.6 ± 1.1	438.1 ± 6.8	1470.5 ± 2

C[N+](=O)[O-] [nitromethane]
Settings	mass density, [2] [kg/m3]	molar heat capacity at constant pressure, [1] [J/K/mol]	speed of sound, [2] [m/s]
293.15 K	1140.2 ± 0.7	106.6 ± 1.7	1339.6 ± 1.5
298.15 K	1133.4 ± 0.7	106.9 ± 1.7	1320.1 ± 1.5
303.15 K	1126.6 ± 0.7	107.3 ± 1.7	1300.5 ± 1.5
308.15 K	1119.7 ± 0.6	107.7 ± 1.7	1280.7 ± 1.5
313.15 K	1112.9 ± 0.6	108.2 ± 1.7	1261.1 ± 1.5
318.15 K	1106 ± 0.6	108.6 ± 1.7	1241.6 ± 1.5

C[N+](=O)[O-] [nitromethane] + CCCC[n+]1cccc(C)c1.F[B-](F)(F)F
[3]
Settings	excess molar enthalpy [kJ/mol]
x2 = 0.0992	-0.252 ± 0.02
x2 = 0.1547	-0.328 ± 0.026
x2 = 0.1998	-0.401 ± 0.032
x2 = 0.3029	-0.443 ± 0.036
x2 = 0.3978	-0.476 ± 0.038
x2 = 0.4973	-0.47 ± 0.038
x2 = 0.6053	-0.396 ± 0.032
x2 = 0.7038	-0.336 ± 0.027
x2 = 0.795	-0.233 ± 0.019
x2 = 0.8525	-0.162 ± 0.013
